Assay results as given in patent US6586413B2, “Methods and compositions for reducing ischemic injury of the heart by administering adenosine receptor agonists and antagonists” (The United States of America as represented by the …, priority 1999, dated 2003).

Tests used:
phospholipase D = test: Phospholipase D activity ([3H]phosphatidylethanol formation); type: cell-based, chick
Method: Quantitation of diacylglycerol (DAG) and measurement of phospholipase D (PLD) activity were carried out as previously described (35, 36). The formation of [^3H] phosphotidylethanol (PEt) during agonist exposure in media containing 0.5% (v/v) ethanol was determined by scintillation counting following its separation from other phospholipids on thin layer chromatography as described (36). The level of [^3H] PEt represents an index of the PLD activity. The position of DAG or PEt was determined by immersing the thin layer plate in an iodine chamber and their levels were expressed as a percentage of total lipids. Data were expressed as the percentage increase in the amount of DAG or PEt relative to that for unstimulated cells.

diacylglycerol level = test: Diacylglycerol (DAG) accumulation in [3H]myristate-labeled ventricular myocytes; type: cell-based, chick; conditions: 1 μM 8-butylaminoCPA or 10 nM MRS1760 for 5 min
Method: FIGS. 15A and 15B show the coupling of the partial A1 and A3 receptor agonists to stimulation of DAG accumulation and the differential inhibitory effects of the phospholipase C inhibitor U-73122 on the cardioprotection caused by 8-butylaminoCPA or by MRS1760, respectively. FIG. 15A: Ventricular myocytes were labeled with [^3H]myristate (Dupont, 49 Ci/mmol, […]) for 24 hours, exposed to 1 μM of 8-butylaminoCPA or 10 nM MRS1760 for 5 min, and the amount of DAG was determined by thin-layer chromatography. Data are expressed as the percentage increase in the amount of DAG relative to that for unstimulated cells, and are means±SE of values from five independent experiments. FIG. 15B: Effects of U-73122 on cardioprotection induced by 8-butylaminoCPA or by MRS1760 were determined. U-73122 (10 μM) was either included or not during the 5 min exposure of ventricular myocytes to 1 μM 8-butylaminoCPA or 10 nM MRS1760, and cardiac injury was assessed after ischemia as described herein below. […]
Quantitation of diacylglycerol (DAG) and measurement of phospholipase D (PLD) activity were carried out as previously described (35, 36). The formation of [^3H] phosphotidylethanol (PEt) during agonist exposure in media containing 0.5% (v/v) ethanol was determined by scintillation counting following its separation from other phospholipids on thin layer chromatography as described (36). […]

[1] = tested on: ventricular myocytes cultured from chick embryos; test: Pharmacological preconditioning: 5 min exposure to agent, then 90 min simulated ischemia; type: cell-based; conditions: for preconditioning / cardioprotective effect: agent alone, 5 min exposure before 90 min ischemia; for maximal protection compared with full agonist: partial agonist vs full agonist (CCPA or Cl-IB-MECA); for effect of high concentration of partial agonist on protection by full agonist: with full agonist CCPA or Cl-IB-MECA
Method: FIG. 14 is a graph showing that the partial A1 receptor agonist, 8-butylaminoCPA, mimics the cardioprotective effect of ischemic preconditioning. Ventricular myocytes were cultured from chick embryos 14 days in ovo. The ability of the partial A1 agonist, 8-butylaminoCPA (8-butylamino-N^6-cyclopentyladenosine), to induce preconditioning was determined. In brief, myocytes were exposed to 8-butylaminoCPA at the indicated concentrations for 5 min, incubated for 10 min with agonist-free medium, and then exposed to simulated ischemia for 90 min. The extent of myocyte injury was quantitated at the end of the 90 min period by determinating the percentage of cells killed and the amount of creatine kinase (CK) released (units per milligram of cell protein). Data are means±SE of values from five independent experiments.
Determination of myocyte injury was made at the end of the ninety-minute hypoxia, at which time myocytes were taken out of the hypoxic incubator and re-exposed to room air (normal % O2). Aliquots of the media were then obtained for creatine kinase (CK) activity measurement, which is followed by quantitation of the number of viable cells. Measurement of basal level of cell injury was made after parallel incubation of control cells under normal % O2. The extent of hypoxia-induced injury to the ventricular cell was quantitatively determined by the percentages of cells killed and by the amount of CK released into the media according to a previously described method (16, 23). […] In brief, the media were replaced with a trypsin-EDTA buffer to detach the cells, which was then followed by sedimentation of the viable myocytes. Parallel changes in % cells killed and CK released (16, 23) further validated this assay for % cells killed. The amount of CK was measured as enzyme activity (unit/mg), and increases in CK activity above the control level were determined. The percentage of cells killed was calculated as the number of cells obtained from the control group (representing cells not subjected to any hypoxia or drug treatment) minus the number of cells from the treatment group divided by number of cells in control group multiplied by 100%.
Media were then replaced with fresh media, which was then followed by exposure to 90-minute simulated ischemia and the data graphed.

phospholipase C = test: Phospholipase C activity in cardiac myocytes; type: cell-based, chick
Method: To further test this notion, the ability of 8-butylaminoCPA to stimulate phospholipase C as measured by […] formation, a downstream signaling molecule that mediates the cardioprotective effect of adenosine A1 receptor was determined.

SMILES	PLD activity (phospholipase D)	diacylglycerol level (diacylglycerol level)	preconditioning / cardioprotective effect [1]	maximal protection compared with full agonist [1]	effect of high concentration of partial agonist on protection by full agonist [1]	PLC activity (phospholipase C)
OC[C@@]12C[C@@H]1[C@@H](n1cnc3c(NCc4cccc(I)c4)nc(Cl)nc31)[C@H](O)[C@@H]2O [MRS1760, (1′R,2′R,3′S,4′R,5′S)-4-{2-Chloro-6-[(3-iodophenylmethyl)amino]purin-9-yl}-1-(hydroxymethyl)bicyclo[3.1.0]-hexane-2,3-diol]	able to stimulate PLD activity	an increase in the diacylglycerol level	able to induce a marked protective effect against ischemia	less than the maximal effect caused by Cl-IB-MECA	blocked the protection induced by the full agonist Cl-IB-MECA	–
CCCCNc1nc2c(NC3CCCC3)ncnc2n1[C@@H]1O[C@H](CO)[C@@H](O)[C@H]1O [8-butylaminoCPA, 8-butylamino-N^6-cyclopentyladenosine]	–	an increase in the diacylglycerol level	able to induce a marked cardioprotective effect	less than that produced by the full agonist CCPA	able to antagonize the protection caused by the full agonist CCPA	able to stimulate PLC activity
